The record followed here is BindingDB's records for doi:10.1016/j.ejmech.2014.06.037 (The Second People'S Hospital of Fujian Provinc, 2014).

For this assay, the target named is Tumor necrosis factor (Homo sapiens, UniProt P01375). Nature of the assay: Binding affinity to TNF-alpha (unknown origin).
Tumor necrosis factor, sequence (P01375 whole entry): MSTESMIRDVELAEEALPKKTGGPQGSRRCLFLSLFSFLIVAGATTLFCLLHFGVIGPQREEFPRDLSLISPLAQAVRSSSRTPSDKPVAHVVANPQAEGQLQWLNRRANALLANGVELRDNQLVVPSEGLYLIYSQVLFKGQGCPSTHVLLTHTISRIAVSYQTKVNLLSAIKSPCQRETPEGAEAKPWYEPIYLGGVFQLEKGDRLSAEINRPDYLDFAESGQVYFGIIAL

Broadly, the Kd is a measure of binding affinity in units of concentration. Lower therefore signals tighter binding. `C[C@H](CC(=O)C[C@@H](C)[C@H]1C[C@@H](O)[C@@]2(C)C3=C(C(=O)C[C@@]12C)[C@@]1(C)CCC(=O)C(C)(C)[C@H]1C[C@@H]3O)C(=O)O` came in with a Kd of 8 nM. This counts as single-digit nanomolar.
